ChEMBL document CHEMBL5108056, “Discovery of Isoform-Selective Akt3 Degraders Overcoming Osimertinib-Induced Resistance in Non-Small Cell Lung Cancer Cells” (J Med Chem, 2022)
Active and inactive are the calls of the source. No cut-off for these calls is given here.

Experiments:
[1] = target: RAC-beta serine/threonine-protein kinase (Homo sapiens, UniProt P31751); assay: Induction of AKT2 degradation in human NCI-H1975 cells assessed as reduction in AKT2 protein level incubated for 24 hrs under serum free medium by Western blot analysis; type: cell-based
RAC-beta serine/threonine-protein kinase, sequence (P31751 whole entry): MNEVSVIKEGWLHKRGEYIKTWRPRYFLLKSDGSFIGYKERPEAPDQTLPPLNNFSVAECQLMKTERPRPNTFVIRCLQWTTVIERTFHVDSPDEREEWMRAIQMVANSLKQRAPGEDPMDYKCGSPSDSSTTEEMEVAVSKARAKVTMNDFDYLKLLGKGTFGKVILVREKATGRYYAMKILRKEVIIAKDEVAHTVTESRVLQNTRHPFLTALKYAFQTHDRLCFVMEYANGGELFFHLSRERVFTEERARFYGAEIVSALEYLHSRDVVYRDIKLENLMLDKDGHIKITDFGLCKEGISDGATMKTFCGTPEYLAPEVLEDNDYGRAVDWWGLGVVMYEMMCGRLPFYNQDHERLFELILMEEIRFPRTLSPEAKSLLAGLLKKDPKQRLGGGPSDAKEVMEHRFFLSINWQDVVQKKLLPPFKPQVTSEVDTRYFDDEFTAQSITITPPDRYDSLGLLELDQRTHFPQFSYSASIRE

[2] = target: T1, RAC-gamma serine/threonine-protein kinase (Homo sapiens, UniProt Q9Y243); assay: Induction of AKT3 degradation in human NCI-H1975 cells assessed as reduction in AKT3 protein level incubated for 24 hrs under serum free medium by Western blot analysis; type: cell-based
T1 sequence (Q9Y243 whole entry): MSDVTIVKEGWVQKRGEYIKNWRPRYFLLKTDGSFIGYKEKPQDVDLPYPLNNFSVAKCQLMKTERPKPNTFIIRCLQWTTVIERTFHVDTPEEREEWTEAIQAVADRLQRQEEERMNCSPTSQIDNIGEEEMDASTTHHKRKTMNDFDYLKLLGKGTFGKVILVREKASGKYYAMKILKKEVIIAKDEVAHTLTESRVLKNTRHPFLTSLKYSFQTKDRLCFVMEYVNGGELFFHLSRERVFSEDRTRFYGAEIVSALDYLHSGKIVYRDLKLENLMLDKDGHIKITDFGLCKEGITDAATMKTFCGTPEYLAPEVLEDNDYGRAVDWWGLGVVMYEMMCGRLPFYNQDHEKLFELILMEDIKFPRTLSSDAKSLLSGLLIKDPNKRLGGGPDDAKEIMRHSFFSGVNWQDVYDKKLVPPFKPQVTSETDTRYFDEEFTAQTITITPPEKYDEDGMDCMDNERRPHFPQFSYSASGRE

[3] = target: T2, RAC-alpha serine/threonine-protein kinase (Homo sapiens, UniProt P31749); assay: Induction of AKT1 degradation in human NCI-H1975 cells assessed as reduction in AKT1 protein level incubated for 24 hrs under serum free medium by Western blot analysis; type: cell-based
T2 sequence (P31749 whole entry): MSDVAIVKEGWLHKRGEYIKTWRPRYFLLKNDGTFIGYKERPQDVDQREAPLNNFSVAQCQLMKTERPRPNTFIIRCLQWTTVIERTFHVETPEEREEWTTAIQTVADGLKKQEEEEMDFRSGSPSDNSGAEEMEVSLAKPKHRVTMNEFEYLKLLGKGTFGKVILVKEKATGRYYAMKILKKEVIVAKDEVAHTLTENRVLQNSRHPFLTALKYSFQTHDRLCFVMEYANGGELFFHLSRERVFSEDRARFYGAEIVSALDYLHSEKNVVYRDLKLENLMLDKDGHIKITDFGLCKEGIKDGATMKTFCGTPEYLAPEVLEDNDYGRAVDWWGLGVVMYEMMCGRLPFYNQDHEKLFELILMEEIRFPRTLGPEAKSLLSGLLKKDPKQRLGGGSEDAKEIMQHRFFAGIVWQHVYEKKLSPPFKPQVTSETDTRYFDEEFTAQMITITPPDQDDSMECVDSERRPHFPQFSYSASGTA

[4] = target: T1, RAC-gamma serine/threonine-protein kinase; assay: Induction of AKT3 degradation in human NCI-H1975 cells assessed as reduction in AKT3 protein level at 1000 nM incubated for 24 hrs under serum free medium by Western blot analysis relative to control; type: cell-based
[5] = target: Epidermal growth factor receptor (Homo sapiens, UniProt P00533); assay: Inhibition of EGFR in human NCI-H1975 cells; type: cell-based
Epidermal growth factor receptor, sequence (P00533 whole entry): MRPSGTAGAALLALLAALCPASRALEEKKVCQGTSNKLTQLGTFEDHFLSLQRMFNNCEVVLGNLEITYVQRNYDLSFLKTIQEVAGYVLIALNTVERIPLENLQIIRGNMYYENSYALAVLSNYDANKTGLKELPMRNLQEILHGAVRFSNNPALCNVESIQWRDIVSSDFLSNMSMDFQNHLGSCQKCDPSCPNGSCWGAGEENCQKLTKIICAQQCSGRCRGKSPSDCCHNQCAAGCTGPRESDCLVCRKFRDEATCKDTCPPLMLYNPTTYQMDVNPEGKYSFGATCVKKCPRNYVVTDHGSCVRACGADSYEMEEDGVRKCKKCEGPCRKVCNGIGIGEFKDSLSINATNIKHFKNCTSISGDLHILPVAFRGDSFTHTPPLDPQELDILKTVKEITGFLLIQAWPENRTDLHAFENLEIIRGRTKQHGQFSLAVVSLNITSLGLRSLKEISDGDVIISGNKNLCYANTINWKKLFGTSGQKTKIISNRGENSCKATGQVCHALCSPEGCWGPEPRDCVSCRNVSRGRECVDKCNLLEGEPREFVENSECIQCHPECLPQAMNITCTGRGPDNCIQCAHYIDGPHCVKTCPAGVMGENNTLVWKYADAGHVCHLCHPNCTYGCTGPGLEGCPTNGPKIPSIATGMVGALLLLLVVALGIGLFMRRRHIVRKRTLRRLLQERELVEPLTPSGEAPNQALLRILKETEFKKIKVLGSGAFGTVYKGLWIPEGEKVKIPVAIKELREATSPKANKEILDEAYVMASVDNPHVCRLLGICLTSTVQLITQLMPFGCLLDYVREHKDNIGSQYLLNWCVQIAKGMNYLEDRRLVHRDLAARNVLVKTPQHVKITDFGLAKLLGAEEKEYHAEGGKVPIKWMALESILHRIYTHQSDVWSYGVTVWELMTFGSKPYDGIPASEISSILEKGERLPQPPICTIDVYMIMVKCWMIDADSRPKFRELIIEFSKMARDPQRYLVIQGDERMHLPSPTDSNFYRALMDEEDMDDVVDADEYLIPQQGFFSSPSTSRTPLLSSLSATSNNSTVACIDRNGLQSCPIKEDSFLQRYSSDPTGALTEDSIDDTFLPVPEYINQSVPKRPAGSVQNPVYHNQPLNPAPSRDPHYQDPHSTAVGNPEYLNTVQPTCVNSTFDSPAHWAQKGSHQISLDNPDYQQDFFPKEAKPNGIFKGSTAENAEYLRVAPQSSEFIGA

[6] = target: T1, RAC-gamma serine/threonine-protein kinase; assay: Binding affinity to full length N-terminal His6-sumo tagged AKT3 (unknown origin) expressed Escherichia coli BL21 (DE3) cells by pull-down/ Western blot analysis
[7] = target: T1, RAC-gamma serine/threonine-protein kinase; assay: Binding affinity to full length N-terminal His6-sumo tagged AKT3 (unknown origin) expressed Escherichia coli BL21 (DE3) cells incubated for 2 hrs by pull-down/ LC-MS analysis
[8] = target: T2, RAC-alpha serine/threonine-protein kinase; assay: Induction of AKT1 degradation in human NCI-H1975 cells assessed as reduction in AKT1 protein level at 1000 nM incubated for 24 hrs under serum free medium by Western blot analysis relative to control; type: cell-based

| SMILES | EC50 [1] [nM] | EC50 [2] [nM] | EC50 [3] [nM] | Emax [4] [%] | EC50 [5] [nM] | Activity [6] | Activity [7] | Emax [8] [%] |
| --- | --- | --- | --- | --- | --- | --- | --- | --- |
| C=CC(=O)Nc1cccc(-n2c(=O)cc(C)c3cnc(Nc4ccc(N5CCN(CCCCCCNC(=O)CC67CC8CC(CC(C8)C6)C7)CC5)cc4OC)nc32)c1 | > 1000 | 1000 | > 1000 | – | – | – | – | – |
| COc1cc(N2CCN(CCCCCCCCCCCCNC(=O)CC34CC5CC(CC(C5)C3)C4)CC2)ccc1Nc1ncc2c(C)cc(=O)n(-c3cccc(NC(C)=O)c3)c2n1 | > 1000 | 67 | > 1000 | 68 | – | – | – | – |
| C=CC(=O)Nc1cccc(-n2c(=O)cc(C)c3cnc(Nc4ccc(N5CCN(CCCCCCCCCCNC(=O)CC67CC8CC(CC(C8)C6)C7)CC5)cc4OC)nc32)c1 | > 1000 | 402 | > 1000 | 51 | – | – | – | – |
| COc1cc(N2CCN(CCCCCCCCCCCCNC(=O)CC34CC5CC(CC(C5)C3)C4)CC2)ccc1Nc1ncc2c(C)cc(=O)n(-c3cccc(NC(=O)C(C)C)c3)c2n1 | > 1000 | 33 | > 1000 | 71 | 143 | – | – | – |

Now from value to compound:

| EC50 [1] [nM] | EC50 [2] [nM] | EC50 [3] [nM] | Emax [4] [%] | EC50 [5] [nM] | Activity [6] | Activity [7] | Emax [8] [%] | SMILES |
| --- | --- | --- | --- | --- | --- | --- | --- | --- |
| > 1000 | > 1000 | > 1000 | – | – | – | – | – | C=CC(=O)Nc1ccc(-n2c(=O)cc(C)c3cnc(Nc4ccc(N5CCN(CCCCCCCCCCCCNC(=O)CC67CC8CC(CC(C8)C6)C7)CC5)cc4OC)nc32)cc1 |
| > 1000 | 34 | > 1000 | 74 | – | – | – | – | CCC(=O)Nc1cccc(-n2c(=O)cc(C)c3cnc(Nc4ccc(N5CCN(CCCCCCCCCCCCNC(=O)CC67CC8CC(CC(C8)C6)C7)CC5)cc4OC)nc32)c1 |
| – | – | – | – | – | Active | Active | – | C#CCN(CCCCCCCCCCCCN1CCN(c2ccc(Nc3ncc4c(C)cc(=O)n(-c5cccc(NC(=O)C6CC6)c5)c4n3)c(OC)c2)CC1)C(=O)CC12CC3CC(CC(C3)C1)C2 |
| > 1000 | 102 | > 1000 | 77 | – | – | – | – | COc1cc(N2CCN(CCCCCCCCCCCCNC(=O)CC34CC5CC(CC(C5)C3)C4)CC2)ccc1Nc1ncc2c(C)cc(=O)n(-c3cccc(N)c3)c2n1 |
| > 1000 | > 1000 | > 1000 | – | – | – | – | – | C=CC(=O)Nc1cccc(-n2c(=O)cc(C)c3cnc(Nc4ccc(N5CCN(C(=O)CCCCCCCCCCCNC(=O)CC67CC8CC(CC(C8)C6)C7)CC5)cc4OC)nc32)c1 |
| > 1000 | 564 | 300 | 55 | – | – | – | 55 | C=CC(=O)Nc1cccc(-n2c(=O)cc(C)c3cnc(Nc4ccc(N5CCN(CCOCCOCCNC(=O)CC67CC8CC(CC(C8)C6)C7)CC5)cc4OC)nc32)c1 |
